Source: patent US9624233B2, “Compounds for treating pruritic conditions” (priority 2015, dated 2017)
Several values for one entry are separate records, joined by “and”; a condition that tells them apart may be missing. Equal values may be shown once.

Tests used:
[1] = biological target: T1, OX2 (h) (Homo sapiens, UniProt O43614); test: Abuse liability binding screen, OX2 (h) (agonist radioligand)
T1 sequence (O43614 1-444): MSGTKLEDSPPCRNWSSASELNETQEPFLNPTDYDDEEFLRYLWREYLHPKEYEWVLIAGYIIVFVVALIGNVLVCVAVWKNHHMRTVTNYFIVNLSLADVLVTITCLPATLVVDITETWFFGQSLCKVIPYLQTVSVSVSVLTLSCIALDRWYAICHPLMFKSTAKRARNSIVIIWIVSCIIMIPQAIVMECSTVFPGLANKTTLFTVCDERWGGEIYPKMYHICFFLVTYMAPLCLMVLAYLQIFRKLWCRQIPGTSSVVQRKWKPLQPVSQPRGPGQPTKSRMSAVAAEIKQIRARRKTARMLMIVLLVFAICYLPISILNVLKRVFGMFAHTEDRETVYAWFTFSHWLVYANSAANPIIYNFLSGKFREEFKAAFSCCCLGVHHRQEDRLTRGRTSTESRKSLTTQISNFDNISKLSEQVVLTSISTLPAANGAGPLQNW
Method: […]. The abuse liability screen included 44 targets (receptors, transporters, on gated-channel systems) related to the dopamine, norepinephrine, serotonin, gamma-aminobutyric acid (GABA), acetylcholine, N-methyl-D-aspartate (NMDA) cannabinoid and opioid neurotransmitter systems as recommended in FDA Draft guidance on Assessment of Abuse Potential of Drugs, January 2010.
(§1) Compound binding was calculated as a % inhibition of the binding of a radioactively labeled ligand specific for each target.
Results showing an inhibition or stimulation higher than 50% are considered to represent significant effects of the test compounds.

[2] = biological target: T2, cloned human δ-opioid receptor expressed in CHO (Homo sapiens, UniProt P41143); test: Opioid receptor binding study, CHO-δ, [3H]DPDPE; conditions: @ 25,000 nM, [3H]DADLE, read-out: % inhibition printed in the IC50 column
T2 construct: expressed in transfected cells; host or cells: CHO cells
T2 sequence (P41143 whole entry): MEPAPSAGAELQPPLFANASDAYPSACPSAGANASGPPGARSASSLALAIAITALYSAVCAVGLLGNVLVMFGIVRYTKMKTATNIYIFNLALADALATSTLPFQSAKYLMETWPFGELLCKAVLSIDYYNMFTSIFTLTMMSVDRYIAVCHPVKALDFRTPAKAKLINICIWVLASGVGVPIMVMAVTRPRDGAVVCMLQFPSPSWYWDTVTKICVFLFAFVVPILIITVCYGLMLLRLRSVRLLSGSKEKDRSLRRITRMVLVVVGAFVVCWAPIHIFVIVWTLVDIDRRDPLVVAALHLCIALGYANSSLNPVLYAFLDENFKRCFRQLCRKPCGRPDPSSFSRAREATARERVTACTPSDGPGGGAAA

[3] = system: NMDA; test: Abuse liability binding screen, NMDA (antagonist radioligand); conditions: 2.5E−05M
Method: as §1

[4] = biological target: T3, cloned human κ-opioid receptor expressed in CHO (Homo sapiens, UniProt P41145); test: biochemical; type: binding
T3 sequence (P41145 whole entry): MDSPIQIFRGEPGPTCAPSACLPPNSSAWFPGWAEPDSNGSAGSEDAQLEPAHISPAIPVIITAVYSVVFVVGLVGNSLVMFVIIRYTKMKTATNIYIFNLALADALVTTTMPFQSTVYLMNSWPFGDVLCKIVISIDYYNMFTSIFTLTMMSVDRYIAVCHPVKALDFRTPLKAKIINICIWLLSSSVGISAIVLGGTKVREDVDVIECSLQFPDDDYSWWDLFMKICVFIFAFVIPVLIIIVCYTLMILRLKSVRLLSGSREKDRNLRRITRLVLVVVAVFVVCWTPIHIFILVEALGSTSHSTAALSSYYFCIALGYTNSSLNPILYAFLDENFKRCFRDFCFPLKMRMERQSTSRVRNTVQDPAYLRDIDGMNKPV

[5] = system: PCP; test: Abuse liability binding screen, PCP (antagonist radioligand); conditions: 2.5E−05M
Method: as §1

[6] = biological target: μ (MOP) (h) (Homo sapiens, UniProt P35372); test: biochemical; type: binding
μ (MOP) (h), sequence (P35372 whole entry): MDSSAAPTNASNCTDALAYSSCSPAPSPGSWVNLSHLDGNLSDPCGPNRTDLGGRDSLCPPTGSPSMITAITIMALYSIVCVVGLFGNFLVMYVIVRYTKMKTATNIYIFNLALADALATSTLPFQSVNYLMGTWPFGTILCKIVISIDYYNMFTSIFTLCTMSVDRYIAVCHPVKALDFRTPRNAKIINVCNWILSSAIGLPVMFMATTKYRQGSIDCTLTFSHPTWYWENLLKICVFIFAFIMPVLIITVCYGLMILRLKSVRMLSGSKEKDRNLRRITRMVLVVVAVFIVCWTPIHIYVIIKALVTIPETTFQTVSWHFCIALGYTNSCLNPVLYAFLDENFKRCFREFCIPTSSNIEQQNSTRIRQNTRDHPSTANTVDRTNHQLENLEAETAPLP
Method: as §1

[7] = biological target: T2, cloned human δ-opioid receptor expressed in CHO; test: Opioid cell functional assay, opioid-agonist assay, CHO-δ; type: cell-based; conditions: cell functional assays
[8] = Plasma Cmax in HD patients; conditions: human
[9] = system: glycine (strychnine−insensitive); type: binding; conditions: 2.5E−05M
Method: as §1

[10] = system: Cl^− channel (GABA-gated); test: Abuse liability binding screen, Cl− channel (GABA-gated) (antagonist radioligand); conditions: 2.5E−05M
Method: as §1

[11] = biological target: T4, μ-opioid receptor expressed in HEK cells (Mus musculus, UniProt P42866); test: Opioid cell functional assay, opioid-antagonist assay, HEK-μ (CTOP); type: cell-based
T4 construct: expressed in transfected cells; host or cells: HEK (human embryonic kidney) cells
T4 sequence (P42866 whole entry): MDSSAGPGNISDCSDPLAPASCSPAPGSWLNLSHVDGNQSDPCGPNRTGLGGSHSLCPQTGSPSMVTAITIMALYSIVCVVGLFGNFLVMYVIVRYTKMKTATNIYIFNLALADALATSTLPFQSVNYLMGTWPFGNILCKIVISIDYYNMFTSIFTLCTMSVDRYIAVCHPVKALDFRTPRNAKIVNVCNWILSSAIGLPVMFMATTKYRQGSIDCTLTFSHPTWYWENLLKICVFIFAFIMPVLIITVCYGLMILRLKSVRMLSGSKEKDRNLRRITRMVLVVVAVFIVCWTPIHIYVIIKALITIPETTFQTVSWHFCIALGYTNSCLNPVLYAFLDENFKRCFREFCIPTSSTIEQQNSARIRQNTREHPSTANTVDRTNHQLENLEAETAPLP

[12] = biological target: T3, cloned human κ-opioid receptor expressed in CHO; test: cell-based; conditions: opioid-agonist assay
[13] = system: AMPA; test: Abuse liability binding screen, AMPA (antagonist radioligand); conditions: 2.5E−05M
Method: as §1

[14] = system: GABA transporter; test: Abuse liability binding screen, GABA transporter (antagonist radioligand); conditions: 2.5E−05M
Method: as §1

[15] = biological target: T4, μ-opioid receptor expressed in HEK cells; test: Opioid cell functional assay, opioid-agonist assay, HEK-μ; type: cell-based
[16] = system: BZD (central); test: Abuse liability binding screen, BZD (central) (agonist radioligand); conditions: 2.5E−05M
Method: as §1

[17] = system: ER (non-selective) (h); test: Abuse liability binding screen, ER (non-selective) (h) (agonist radioligand); design: species or system human; conditions: 2.5E−05M
Method: as §1

[18] = biological target: T3, cloned human κ-opioid receptor expressed in CHO; test: cell-based; design: Max Inh (%): dose or concentration left out as unconfirmed; conditions: opioid-antagonist assay
[19] = system: kainate; test: Abuse liability binding screen, kainate (agonist radioligand); conditions: 2.5E−05M
Method: as §1

[20] = biological target: κ (KOP) (Rattus norvegicus, UniProt P34975); test: Binding screen and IC50 determination, κ (KOP) (agonist radioligand)
κ (KOP), sequence (P34975 whole entry): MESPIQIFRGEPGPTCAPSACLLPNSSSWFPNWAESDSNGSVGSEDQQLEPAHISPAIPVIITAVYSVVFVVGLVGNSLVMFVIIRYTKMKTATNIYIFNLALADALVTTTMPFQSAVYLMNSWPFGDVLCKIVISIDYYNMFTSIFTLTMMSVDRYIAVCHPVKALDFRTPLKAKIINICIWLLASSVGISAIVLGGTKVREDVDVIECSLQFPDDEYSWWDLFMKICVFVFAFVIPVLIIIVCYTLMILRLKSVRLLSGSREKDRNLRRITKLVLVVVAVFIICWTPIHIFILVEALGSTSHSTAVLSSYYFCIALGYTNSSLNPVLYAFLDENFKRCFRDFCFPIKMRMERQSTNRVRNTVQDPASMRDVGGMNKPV
Method: as §1

[21] = biological target: T4, μ-opioid receptor expressed in HEK cells; test: Opioid receptor binding study, HEK-μ, [3H]DAMGO
[22] = system: Na^+ channel (site 2); test: Abuse liability binding screen, Na+ channel (site 2) (antagonist radioligand); conditions: 2.5E−05M
Method: as §1

[23] = against a μ-opioid receptor agonist ligand

## Oc1ccc2c3c1O[C@H]1[C@@H](O)CC[C@@]4(O)[C@@H](C2)N(CC2CCC2)CC[C@]314 [Nalbuphine, nalbuphine]
[1]; 1.0E−05M
  % Inhibition of Control Specific Binding 1st: −11.3%
  % Inhibition of Control Specific Binding 2nd: −7.4%
  % Inhibition of Control Specific Binding Mean: −9.4%

## O=C(O)CC(CO)CN1CC[C@]23c4c5ccc(O)c4O[C@H]2[C@@H](O)CC[C@@]3(O)[C@H]1C5 (some centres unmarked) [Compound 1]
[2]
  inhibition at 25 µM: 11%
[3]
  % Inhibition of Control Specific Binding 1st: −12.5%
  % Inhibition of Control Specific Binding 2nd: −9.8%
  % Inhibition of Control Specific Binding Mean: −11.1%
[4]; CHO-κ, [3H]U 69593
  IC50: 74 µM
  Ki: 49 µM
[4]; k-receptor
  NAL Selectivity relative to Comp1 / M5 (Compound 1 or M5 Ki/NAL Ki): 13,611
[5]
  % Inhibition of Control Specific Binding 1st: −12.2%
  % Inhibition of Control Specific Binding 2nd: −1.4%
  % Inhibition of Control Specific Binding Mean: −6.8%
[6]; 2.5E−05M
  % Inhibition of Control Specific Binding Mean: 92.0%
[6]; IC50 determination
  nH: 0.6
[6]; [23]
  IC50: 3.2 µM
  Ki: 1.3 µM
[7]
  activity at the delta receptor: no activity
[8]
  Cmax: ~16 µM
[9]
  % Inhibition of Control Specific Binding 1st: −13.5%
  % Inhibition of Control Specific Binding 2nd: −9.7%
  % Inhibition of Control Specific Binding Mean: −11.6%
[1]; 2.5E−05M
  % Inhibition of Control Specific Binding 1st: −9.6%
  % Inhibition of Control Specific Binding 2nd: −11.9%
  % Inhibition of Control Specific Binding Mean: −10.7%
[10]
  % Inhibition of Control Specific Binding 1st: 1.7%
  % Inhibition of Control Specific Binding 2nd: 1.0%
  % Inhibition of Control Specific Binding Mean: 1.3%
[11]
  IC50: > 30 µM
[11]; HEK293, read-out: Max Inh (%)
  inhibition at 30 µM: -1%
[12]
  EC50: > 100 µM
  Max Inh (%): 14%
[13]
  % Inhibition of Control Specific Binding 1st: 0.9%
  % Inhibition of Control Specific Binding 2nd: −3.7%
  % Inhibition of Control Specific Binding Mean: −1.4%
[14]
  % Inhibition of Control Specific Binding 1st: 7.4%
  % Inhibition of Control Specific Binding 2nd: −6.2%
  % Inhibition of Control Specific Binding Mean: 0.6%
[15]; EC50 (nM), opioid-agonist assay, HEK-μ
  EC50: 78000 nM and ~78000 nM
[15]; EC50, μ-opioid receptor partial agonist/antagonist
  EC50: ~173000 nM
[15]; EC50 exceeding Cmax
  μ-agonist EC50 relative to Cmax in HD patients: ~4 fold
[15]; opioid-agonist assay, HEK-μ
  Max Inh (%): 61%
[16]
  % Inhibition of Control Specific Binding 1st: 3.4%
  % Inhibition of Control Specific Binding 2nd: 3.0%
  % Inhibition of Control Specific Binding Mean: 3.2%
[17]
  % Inhibition of Control Specific Binding 1st: −8.0%
  % Inhibition of Control Specific Binding 2nd: 4.3%
  % Inhibition of Control Specific Binding Mean: −1.9%
[18]
  Max Inh (%): −10% @
[18]; Nor-BNI, read-out: EC50 (nM) column (IC50 per footnote)
  IC50: > 30000 nM
[19]
  % Inhibition of Control Specific Binding 1st: 6.3%
  % Inhibition of Control Specific Binding 2nd: 34.1%
  % Inhibition of Control Specific Binding Mean: 20.2%
[20]
  IC50: 74 µM
  Ki: 49 µM
[20]; IC50 determination
  nH: 0.7
[21]
  IC50: 3.2 µM
  Ki: 1.3 µM
[21]; μ-receptor
  NAL Selectivity relative to Comp1 / M5 (Compound 1 or M5 Ki/NAL Ki): 929
[22]
  % Inhibition of Control Specific Binding 1st: −4.4%
  % Inhibition of Control Specific Binding 2nd: 21.0%
  % Inhibition of Control Specific Binding Mean: 8.3%
